The values below come from paper PMC5812233, “A novel CAV derived cell-penetrating peptide efficiently delivers exogenous molecules through caveolae-mediated endocytosis” (Veterinary Research, 2018).

“Also recorded” adds a separate entry of the source. No end group written: not given here. *: point of attachment. FITC = O=C1OC2(c3ccc(O)cc3Oc3cc(O)ccc32)c2ccc(NC(=S)*)cc21

The subject of series [1] is furin. Conditions: motif (RKKR and RQRR) in the TAT sequence; cited from earlier work. The text has this: Generally, CPPs are composed of 5–30 amino acids (aa) with enriched lysine or arginine residues, and divided into three classes including amphipathic CPP, cationic CPP and hydrophobic CPP [2, 3]. […] As the pioneer of CPPs, HIV-TAT with 86 amino acids plays vital roles in the replication of HIV. It wa ...

Series [2] has as its system HCT116 cells. Kind of series: Flow cytometry of cellular uptake of FITC-labeled peptides. In kind it is cell-based. The following applies: for mean percent of relative internalization: 10 000 events, three experiments in triplicate (Figure 3D). How it is done: The comparison of cell-penetrating efficiency of peptides in HCT116 cells was tested by incubating the cells with CVP1 or TAT peptides. […] The cells were washed twice by centrifugation and finally resuspended in 400 µL PBS for assaying of cellular fluorescent intensity by flow cytometry (BD FACSAria SORP, Becton–Dickinson, USA). A total of 10 000 events were recorded. Data was obtained and analyzed using Flowjo software.

Series [3] concerns HCT116 cells. Conditions: 5 µM FITC-labeled peptide, 30 min, 37 °C, serum-free medium, confocal microscopy. The procedure: (§1) 293T cells, HCT-116 cells, 3T3 cells, MDCK cells and MSB1 cells were maintained in our laboratory and were grown in Dulbecco’s modified Eagle’s medium supplemented with 10% heated-inactivated fetal bovine serum (FBS) and 1% penicillin–streptomycin solution at 37 °C and 5% CO2.
(§2) Firstly, 2.0 × 10^5 of 293T cells, HCT-116 cells, 3T3 cells or MDCK cells were seeded onto glass cover slides in 24-well plates and cultured for 12 h. The cells were then washed with phosphate buffered saline (PBS) and incubated with 5 µM of FITC-labeled CVP1, TAT and Mut-CVP1 peptides in 500 µL serum-free medium for 30 min. The concentration-dependent intake of CVP1 peptide in HCT-116 cells was then evaluated. In brief, after incubation of cells with FITC-CVP1 peptide for 30 min, cells were washed for three times and stained with Hoechst 33342 (5 µg/mL) for 10 min. Finally, cells were washed three times with PBS and imaged using confocal laser scanning microscope (Leica, TCS SP8 STED and Germany) at 60× magnification.

Series [4] concerns HCT116 cells. Briefly: β-galactosidase delivery, X-gal staining. The following applies: 20 µM peptide non-covalently complexed with 1 µg β-galactosidase, 1 h + 90 min at 37 °C, phase-contrast microscopy. The class given is cell-based. How it is done:
Protein delivery ability of CVP1 was assessed using β-galactosidase enzyme as previously described. In brief, CVP1 and Mut-CVP1 at a concentration of 20 µM were non-covalently complexed with β-galactosidase (1 µL, 1 µg/µL) enzyme respectively. The mixtures were incubated for 30 min at room temperature (RT) for complex formation. The peptide-enzyme complex was added to the HCT116 cells with Opti-MEM media (100 µL) and the cells were incubated for 1 h at 37 °C. After incubation, complete media (150 µL) was added to the cells, and further incubated for 90 min at 37 °C. The cells were washed thoroughly with PBS to remove extracellular peptide-enzyme complex and fixed in PBS containing 1% formaldehyde and 0.2% glutaraldehyde for 15 min at RT. The cells were washed subsequently three times with PBS and stained with X-gal staining buffer (40 mM potassium ferricyanide, 40 mM potassium ferrocyanide, 20 mM magnesium chloride, 2 mg/mL of X-gal in PBS) for 90 min at 37 °C. Finally, the cells were analyzed under a phase-contrast microscope (Olympus) at 200× magnification and imaged.

Series [5] has as its system HCT116 cells. Kind of series: Plasmid (pCDNA3.1-RFP) transfection, fluorescence microscopy and flow cytometry. In kind it is cell-based. The following applies: 40 µM peptide, 1 µg plasmid DNA; for RFP fluorescence of cells treated with peptide-pCDNA3.1-RFP complex: 48 h post-transfection, fluorescence microscope. The procedure:
(§3) The linking of DNA with CVP1 was made by the charge interaction. To confirm the formation of the peptide and plasmid complexes, the CVP1 peptide (5 μM) and plasmid DNA (200 ng) were diluted in 10 µL Opti-MEM and co-incubated at 37 °C for 45 min, and then agarose gel retardation assay was performed as described previously. The transfection experiment was conducted to test the transfection efficiency of CVP1-DNA on HCT116 cells as described previously. Briefly, 1 μg of plasmid DNA and 40 µM of CVP1 peptide or TAT peptide were diluted in 50 µL Opti-MEM, respectively and incubated at RT for 30 min. The lipofectamine 2000 (Invitrogen, USA) was used as a positive control, following the manual provided by the manufacture. […] Meanwhile, the fluorescence intensity was measured by Flow cytometry as described previously.

For series [6], the system named is 3T3 cells. Conditions: 5 µM FITC-labeled peptide, 30 min, 37 °C, serum-free medium, confocal microscopy. How it is done: as §1, §2
In series [7] the test system is MDCK cells. Conditions: 5 µM FITC-labeled peptide, 30 min, 37 °C, serum-free medium, confocal microscopy. How it is done:
as §1, §2

The test system of series [8] is 293T cells. The following applies: 5 µM FITC-labeled peptide, 30 min, 37 °C, serum-free medium, confocal microscopy. The procedure: as §1, §2
The subject of series [9] is HCT116 cells. Conditions: up to 40 µM (5, 10, 20, 40 µM), 12, 24 and 48 h (Figure 3C). The procedure:
Effect of CVP1 on the viability of cells was evaluated by MTT assay as described previously.

For series [10], the system named is poly (I:C). Kind of series: Gel retardation electrophoresis of peptide-poly (I:C) complex. The class given is binding. The following applies: 10 µM peptide, 5 µg poly (I:C), 45 min 37 °C.
The subject of series [11] is HCT116 cells. Kind of series: Cell internalization pathway: endocytosis inhibitors and temperature, flow cytometry. In kind it is cell-based. The procedure: The mechanism of uptake of CVP1 in HCT116 cells was investigated by means of physical and chemical inhibition of endocytosis. Incubation of peptide and cells at 37 or 4 °C were treated to measure the influence of temperature on peptide internalization (used as a physical means of inhibition of endocytosis). HCT116 cells cultured in 12-well plates were pretreated for 30 min with inhibitors: 30 µM chlorpromazine (a clathrin-mediated endocytosis inhibitor, which prevents the assembly of clathrin-coated pits at the inner surface of the cell membrane), 5 mM methylated-β-cyclodextrin (a caveolae-mediated endocytosis inhibitor, a cholesterol depletion agent), 10 µM 5-(N-ethyl-N-isopropyl) amilorid (a macropinocytosis inhibitor, which selectively blocks the Na^+/H^+ antiporter) and 50 µM LY294002 (a macropinocytosis inhibitor, a strong phosphatidylinositol-3 kinase inhibitor) as previously described. The cells were further incubated with the peptide for 50 min and then analyzed by flow cytometry. To investigate the effect of incubation time, the HCT116 cells were incubated with CVP1 at 37 °C for different time periods.
(A flow cytometer gives signals particle by particle.)

In series [12] the test system is pCDNA3.1-RFP plasmid. Kind of series: Agarose gel retardation (gel-shift) assay of peptide-plasmid complex. In kind it is binding. Conditions: 5 µM peptide, 200 ng plasmid DNA, 37 °C 45 min, ethidium bromide. The procedure:
as §3

The test system of series [13] is HD11 cells. Kind of series: Poly (I:C) delivery, IFN-β mRNA by real-time PCR. The class given is cell-based. The following applies: 10 µM peptide, 5 µg poly (I:C), 6 h. The procedure:
To analyze the ability of CVP1 to delivery poly(I;C), the CVP1 (10 µM) was first mixed with the poly (I:C) (5 µg) for 45 min at 37 °C for generating the complex. And then, the HD11 cells were incubated with peptide-poly (I:C) complexes, peptide (10 µM) only or poly (I:C) (5 µg) with transfecting reagent. After 6 h of incubation, the cells were collected and total RNA extracted using total RNA purification kit (Axygen, USA). 1 µg of RNA was reverse transcribed into cDNA with a reverse transcription reagent kit (Takara, Japan). The relative mRNA level of IFN-β was detected by Real-time PCR.
A general note: Real-time PCR tracks product formation cycle by cycle.

[14] abbreviates: HCT116 cells, 0.1 µM FITC-labeled peptide, flow cytometry after trypsin 5 min to remove non-internalized peptide.
Setting [15] is: HCT116 cells, 1 µM FITC-labeled peptide, flow cytometry after trypsin 5 min.
Setting [16] is: HCT116 cells, 2 µM FITC-labeled peptide, flow cytometry after trypsin 5 min.
Where [17] appears, read: HCT116 cells, 5 µM FITC-labeled peptide, flow cytometry after trypsin 5 min.
Where [18] appears, read: HCT116 cells, 10 µM FITC-labeled peptide, flow cytometry after trypsin 5 min.

As to “FITC-YGRKKRRQRRR [TAT, reference compound]”, the stability toward furin entry in series [1] is “cleaved by furin”. Also, the “mean percent of relative internalization” value is given as 0.1% in [2] (setting [14]); 0.4% in series [2] (setting [15]); 1.7% in series [2] (setting [16]); 25% in series [2] (setting [17]); 61% in [2] (setting [18]).
For the substance {FITC}-MAAGAGAPAGAFYAFGAGA [Mut-CVP1], the “specific green fluorescence dots in cells (internalization)” value in series [3] is “not”. The “X-gal staining of cells treated with peptide-β-galactosidase complex” value in series [4] was “very weak blue background”. In addition, the “cell-penetrating activity (overall)” value in [2] (HCT116 cells, FITC-labeled peptide, confocal imaging and flow cytometry) is reported as “did not show any cell-penetrating activity”. Also, the “RFP fluorescence of cells treated with peptide-pCDNA3.1-RFP complex” value in [5] is recorded as “no fluorescence”.
On to “{FITC}-MARRARRPRGRFYAFRRGR [CVP1, N terminus (aa 1–19) of VP1 from chicken anemia virus, FITC-labeled cell-penetrating peptide]”, for which the “specific green fluorescence dots in cells (internalization)” value in series [6], in series [7], in series [3] and in [8] was “clearly observed” each time. Moreover, the “toxicity to cells (cell viability, MTT)” value in [9] is on record as “non-toxic”. For the same substance, the “X-gal staining of cells treated with peptide-β-galactosidase complex” value in series [4] is on record as “strong blue color”. In addition, the “mean percent of relative internalization” value was found to be 0.1% in series [2] (setting [14]); 2.1% in [2] (setting [15]); 18.7% in [2] (setting [16]); 86% in series [2] (setting [17]); 98% in series [2] (setting [18]). In addition, in series [2] (HCT116 cells, 5 µM peptide, 5, 10, 15, 20, 25, 30 min, flow cytometry (Figure 3B)), the “intensity of fluorescence in cells versus incubation time” value is recorded as “increased as the incubation time was increased from 5 to 30 min”. For the same substance, the “cell-penetrating efficiency versus concentration” value in series [2] (HCT116 cells, 1, 2, 5, 10, 20, 40 µM, 30 min, 37 °C, flow cytometry (Figure 3A)) was “dose-dependent”. For the same substance, the “complex formation with poly (I:C)” value in [10] was “could conjugate with the poly (I:C) to form a complex”. In addition, the “efficacy of delivering plasmid, comparison with other carriers” value in [5] (48 h, flow cytometry, comparators TAT peptide, lipofectamine 2000) is “significantly higher signal of fluorescence than the TAT/RFP sample; also recorded: not as equal as commercial transfection reagents”. The “RFP fluorescence of cells treated with peptide-pCDNA3.1-RFP complex” value in [5] is reported as “strong fluorescence”. Further, in series [11] (HCT116 cells pretreated 30 min with 10 µM 5-(N-ethyl-N-isopropyl) amiloride (macropinocytosis inhibitor), then peptide 50 min), the “effect of EIPA on cellular intake of the peptide” value is “unable to inhibit”. Further, the “effect of CPZ on cellular intake of the peptide” value in series [11] (HCT116 cells pretreated 30 min with 30 µM chlorpromazine (clathrin-mediated endocytosis inhibitor), then peptide 50 min) is “unable to inhibit”. The “effect of LY294002 on cellular intake of the peptide” value in series [11] (HCT116 cells pretreated 30 min with 50 µM LY294002 (macropinocytosis inhibitor), then peptide 50 min) is given as “only slightly blocked”. Also, the “effect of MβCD on cellular intake of the peptide” value in [11] (HCT116 cells pretreated 30 min with 5 mM methylated-β-cyclodextrin (caveolae-mediated endocytosis inhibitor), then peptide 50 min) is “significantly reduced”. Also, the “cell-penetrating activity at 4 °C” value in series [11] (HCT116 cells, 10 µM peptide, 4 °C compared with 37 °C) was “efficiently inhibited”. For the same substance, the “migration of plasmid conjugated with peptide (DNA binding capacity)” value in [12] is on record as “much lower migration speed than naked plasmid”. Besides, the “capacity of delivering poly (I:C), comparison with other carriers” value in series [13] (IFN-β mRNA by real-time PCR, comparators TAT, transfection reagent) is “higher than the TAT; also recorded: not as equal as commercial transfection reagents”. For the same substance, the “IFN-β mRNA expression of cells treated with peptide/poly (I:C) complexes versus naked peptide or poly (I:C) only” value in series [13] (real-time PCR) is reported as “significantly increased”.
